Measurements reported in patent US8193238B2, “Inhibition of microtubule protrusion in cancer cells” (University of Maryland, Baltimore, priority 2006, dated 2012).
Entries after “also recorded” stand apart in the source; their conditions may differ.

Legend:
EpH4-Bcl2 cells = assay: Cell-substratum attachment assay; assay type: cell-based, mouse
Description: In FIG. 6A, EpH4-Bcl2 cells were suspended over agarose and treated with inhibitors as above. Following treatment, cells were plated into 0.3% methylcellulose media over agarose and the rate of cell-cell attachment was followed by Hoescht DNA staining. […] Similar results were found in three independent experiments. In FIG. 6B, EpH4-Bcl2 cells suspended over agarose for one hour in DMEM or DMEM containing LA (5 μM), Colchicine (1 μM), or the combination. Reattachment of these cells to either uncoated tissue culture plates or those pre-coated with laminin was followed by XTT cell viability assay. Values represent mean+S.D. of raw XTT values of three separate experiments.
Equivalent numbers of B19 cells were suspended over 6-well plates coated in 2% agarose in serum-free media containing 5 μM Latrunculin-A (LA; BioMol, Plymouth Meeting, Pa.), 100 μM colchicine (Col; Sigma, St. Louis, Mo.), 5 μg/ml nocodazole (Noc), or 1 μg/ml vinblastine (VinB; Sigma) for a duration of 1 hr at 37° C. Cells were collected by centrifugation (1000 rpm×5 min) and drug containing media was aspirated. Cells were resuspended in EpH4 serum-containing growth media and aliquoted out into 24 wells (8 timepoints×3 replicates) of a 96-well clear bottom black plate. After plating, cells were allowed to attach for duration of 15 min, 45 min, 1.5 hr, 2 hr, 3 hr, 4 hr, 5 hr, and 24 hr at which point the media was aspirated from the replicate wells, washed twice in PBS, and fresh growth media was replaced at each timepoint. After 24 hr, all wells were aspirated and cells were incubated in growth media containing Hoescht 33342 (1:5000) for 30 min at 37° C. to label all attached cells. Fluorescence was measured using a Biotek Synergy HT Multi-Detection Microplate Reader (Winooski, Vt.) at excitation wavelength 360 nm and an emission filter of 460 nm followed by subsequent analysis using the KC4 Data Analysis software. The percentage of cell attachment for each treatment exposure was calculated as the RFU at each timepoint divided by the RFU at 24 h (maximum attachment). The standard deviations of triplicates at each timepoint are shown.
To determine if these microtubule protrusions influence the ability of cells to form attachments, the cells were treated with inhibitors of actin or tubulin polymerization and assessed both cell-cell and cell-substratum attachment (FIG. 6). […] Induction of such nonspecific attachment activity in detached mammary epithelial cells could promote tumor cell dissemination, particularly when apoptotic resistance allows this response to continue for extended periods.

Glu-tubulin = assay: Western blotting of modified tubulin isoforms in attached or suspended cells; assay type: cell-based, mouse; settings: for cellular levels of Glu-tubulin: EpH4-Bcl2, attached or detached, LA 5 μM
Description: EpH4-Bcl2 cells were grown attached to tissue culture dishes or suspended over agarose for the indicated times in either the absence or presence of LA (5 μM). In FIG. 5A, cell lysates were immunoblotted to detect levels of modified tubulin isoforms in the cell populations. In FIG. 5B, modified α-tubulin isoforms were normalized to total α-tubulin and then compared relative to the levels in attached cells at time zero. Bars represent the mean+S.E.M. of four independent experiments. […] Differences in Glu-tubulin upon detachment were also statistically-significant when compared to matched controls at time zero or one hour (black asterisks).
Whole cell lysates were prepared from EpH4 cells that were scraped or suspended in the presence or absence of 5 μM Latrunculin-A. Cells were pelleted at 3000 rpm×5 min and resuspended in lysis buffer (2% SDS, 100 mM Tris-HCl (pH 6.8), 20% Glycerol, 20 mM DTT, 1 mM phenylmethylsulfonyl fluoride, 1% protease inhibitor cocktail (Sigma, P2714)), and then immediately boiled for 10 min. Protein concentration was measured using a Lowry based assay (Bio-Rad, Hercules, Calif.). The amount of 17.5 μg of protein from each sample was separated by SDS-PAGE on 10% polyacrylamide gels and then transferred to Immuno-Blot PVDF membranes (Bio-Rad, Hercules, Calif.). The membrane was blocked in 2% milk in TBS with 0.1% Tween for 1 hr at room temperature followed by an overnight incubation at 4° C. in monoclonal α-tubulin (1:1000), tyrosinated tubulin (1:1000), acetylated tubulin (1:1000), and polyclonal detyrosinated tubulin (1:1000) in 1% milk in TBST. Secondary antibodies to IgG conjugated to horseradish peroxidase were used (1:5000; GE Healthcare, Piscataway, N.J.) and visualized using ECL chemiluminescent detection kit.
Immediately following detachment, levels of Glu-tubulin increase and remain elevated for at least 2 hours. […] The increased length and number of protrusions in response to LA may therefore reflect a decrease in an actin-dependent counteracting force, rather than a direct induction of protrusions.

MCF10A cells = assay: Protrusions in suspended cells treated with cytoskeletal inhibitors (MCF10A); assay type: cell-based, human; parameters: protrusions counted with phase-contrast microscopy: dose or concentration left out as unconfirmed
Description: In FIG. 2A, after 15 minutes of suspension, protrusions in EpH4 and MCF10A cells are quite small (Control, white arrows). […] In FIG. 2B, populations of live, suspended cells were scored blindly for two or more protrusions longer than the cell radius. Each bar represents the mean+S.D. for three experiments in which at least 100 single cells were counted.
In order to initially characterize the cytoskeletal mechanism underlying these protrusions, suspended cells were treated with inhibitors of actin and tubulin polymerization (FIG. 2). After 15 minutes of suspension, the protrusions in untreated EpH4 or MCF10A cells remain fairly short (FIG. 2, white arrows). These early protrusions can often be difficult to detect with phase-contrast microscopy, due to interfering light refraction from the plasma membrane. […] Protrusions were more easily visible with immunofluorescence than phase contrast microscopy (FIG. 3, white arrows). Although actin filament staining was generally low along the length of the protrusion, dense points of actin were often found at the end of protrusions (FIG. 3, arrowheads).
The nontumorigenic human mammary epithelial cell line (MCF10A) or the indicated human breast tumor cell lines were grown in suspension for 30-60 minutes, and protrusions were counted in random fields with phase-contrast microscopy. Values represent the mean±S.D. of three experiments in which at least 100 cells were counted. […] This effect was most apparent in the highly metastatic but exemplary Bt-474 and MDA-MB-231 cells (pictured, black arrows). The exemplary MCF10A cells show far fewer and shorter protrusions at the same time point (pictured, white arrows). Such protrusions are not observed in attached cells.

C/C1=C/C(=O)O[C@@H]2C[C@@H](CC[C@H](C)/C=C\C=C\CC1)O[C@@](O)([C@@H]1CSC(=O)N1)C2 [Latrunculin-A]
attachment of cells to tissue culture surfaces (EpH4-Bcl2 cells; EpH4-Bcl2 (B19), 1 hr in suspension with inhibitor, then replated): did not significantly affect attachment | cell-surface attachment to uncoated or laminin-coated plates (XTT) (EpH4-Bcl2 cells; EpH4-Bcl2 suspended one hour, LA 5 μM, Colchicine 1 μM): does not affect cell-surface attachment | total cellular levels of α-tubulin, tyrosinated or acetylated tubulin (Glu-tubulin; EpH4-Bcl2, LA treatment): remain unaffected | cellular levels of Glu-tubulin (Glu-tubulin): did not increase | cellular levels of Glu-tubulin (Glu-tubulin; listed as LA): not specifically increased; also recorded: does not significantly increase cellular levels of Glu-tubulin | protrusions counted with phase-contrast microscopy (MCF10A cells; MCF10A in suspension 30-60 minutes, LA): increases protrusions | protrusions (MCF10A cells; MCF10A, 15 minutes of suspension, Latrunculin-A 5 μM, Colchicine 1 μM, listed as latrunculin-A): significantly enhanced both the number and length of protrusions
